Experimental data published in ChEMBL document CHEMBL4428076 (J Med Chem, 2016).
The source made the active and inactive calls. The rule behind the calls is not given here.

How the values were obtained:
[1] = target: T1, Alpha-2C adrenergic receptor (Homo sapiens) (UniProt P18825); test: Displacement of [3H]rauwolscine from recombinant human adrenergic alpha2C receptor expressed in MDCK cell membrane after 90 mins by microbeta scintillation counting method
T1 sequence (whole entry): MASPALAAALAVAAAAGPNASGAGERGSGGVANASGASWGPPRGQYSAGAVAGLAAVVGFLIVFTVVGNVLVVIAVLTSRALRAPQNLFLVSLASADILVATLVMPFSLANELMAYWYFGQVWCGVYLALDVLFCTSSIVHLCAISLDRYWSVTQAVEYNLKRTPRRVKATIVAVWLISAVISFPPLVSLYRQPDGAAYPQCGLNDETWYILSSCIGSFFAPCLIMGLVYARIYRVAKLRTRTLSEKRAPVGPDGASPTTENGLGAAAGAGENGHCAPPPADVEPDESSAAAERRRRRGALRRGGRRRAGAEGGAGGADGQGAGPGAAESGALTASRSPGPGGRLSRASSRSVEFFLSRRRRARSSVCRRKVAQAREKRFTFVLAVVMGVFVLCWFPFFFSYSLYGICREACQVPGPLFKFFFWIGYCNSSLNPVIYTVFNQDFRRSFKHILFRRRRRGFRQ

[2] = system: Mus musculus; test: Antinociceptive activity in CD-1 mouse assessed as time required for peak effect at 1.5 mg/kg, sc by radiant heat tail flick assay; format: functional
[3] = target: 5-hydroxytryptamine receptor 7 (Homo sapiens) (UniProt P34969); test: Displacement of [3H]LSD from recombinant human 5HT7A receptor expressed in HEK cell membrane after 90 mins by microbeta scintillation counting method
[4] = target: T2, Alpha-2A adrenergic receptor (Homo sapiens) (UniProt P08913); test: Displacement of [3H]rauwolscine from recombinant human adrenergic alpha2A receptor expressed in MDCK cell membrane after 90 mins by microbeta scintillation counting method
T2 sequence (whole entry): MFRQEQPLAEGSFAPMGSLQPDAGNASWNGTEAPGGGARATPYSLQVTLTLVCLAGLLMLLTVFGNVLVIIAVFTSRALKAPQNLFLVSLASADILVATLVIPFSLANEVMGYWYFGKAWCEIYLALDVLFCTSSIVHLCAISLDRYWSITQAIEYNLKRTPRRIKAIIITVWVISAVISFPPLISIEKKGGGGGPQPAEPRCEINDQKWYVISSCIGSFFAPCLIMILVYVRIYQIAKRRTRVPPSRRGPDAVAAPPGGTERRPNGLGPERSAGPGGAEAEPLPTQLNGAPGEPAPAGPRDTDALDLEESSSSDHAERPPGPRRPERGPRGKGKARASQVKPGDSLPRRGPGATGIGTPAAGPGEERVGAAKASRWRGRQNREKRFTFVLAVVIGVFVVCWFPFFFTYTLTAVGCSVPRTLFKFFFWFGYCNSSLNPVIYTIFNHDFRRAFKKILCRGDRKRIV

[5] = target: Mu-type opioid receptor (Homo sapiens, UniProt P35372); test: Activation of mu opioid receptor-1 (unknown origin) expressed in CHO cells assessed as beta-arrestin-2 recruitment at 10 uM after 90 mins by beta-galactosidase complementation assay; format: cell-based; settings: 1.5 h
[6] = system: Mus musculus; test: Antinociceptive activity in CD-1 mouse assessed as increase in reaction time at 1.5 mg/kg, sc measured 15 mins post dose in presence of kappa opioid receptor antagonist norBNI by radiant heat tail flick assay; format: functional, organism-based
[7] = target: Delta-type opioid receptor (Mus musculus, UniProt P32300); test: Displacement of [125I]-IBNtxA from mouse delta opioid receptor-1 expressed in CHO cell membranes incubated for 90 mins
[8] = Toxicity in C57BL/6 mouse assessed as conditioned place preference at 1.3 to 3.2 mg/kg/day, ip measured for 30 mins post dose; format: organism-based; settings: in vivo, 0.5 h
[9] = system: Mus musculus; test: Antinociceptive activity in sc dosed CD-1 mouse assessed as increase in reaction time administered twice daily at dosing intervals of 12 hrs for 29 days by radiant heat tail flick assay; format: functional; settings: CD-1, sc
[10] = Toxicity in C57BL/6 mouse assessed as conditioned place aversion at 1.3 to 3.2 mg/kg/day, ip measured for 30 mins post dose; format: organism-based; settings: in vivo, 0.5 h
[11] = system: Mus musculus; test: Ratio of ED50 for sc dosed CD-1 mouse administered twice daily at dosing intervals of 12 hrs for 29 days to ED50 for sc dosed CD-1 mouse measured 15 mins post dose; format: functional
[12] = target: Mu-type opioid receptor (Mus musculus) (UniProt P42866); test: Agonist activity at mouse mu opioid receptor-1 expressed in CHO cell membranes assessed as [35S]GTPgammaS binding incubated for 60 mins by scintillation spectroscopic analysis relative to DAMGO; format: functional
[13] = Toxicity in CD-1 mouse assessed as inhibition of gastrointestinal transit by measuring distance traveled by charcoal at 1.5 mg/kg, sc followed by charcoal meal administration measured after 30 mins; format: organism-based; settings: in vivo, 0.5 h

Sequence of Mu-type opioid receptor (Mus musculus) (P42866 whole entry): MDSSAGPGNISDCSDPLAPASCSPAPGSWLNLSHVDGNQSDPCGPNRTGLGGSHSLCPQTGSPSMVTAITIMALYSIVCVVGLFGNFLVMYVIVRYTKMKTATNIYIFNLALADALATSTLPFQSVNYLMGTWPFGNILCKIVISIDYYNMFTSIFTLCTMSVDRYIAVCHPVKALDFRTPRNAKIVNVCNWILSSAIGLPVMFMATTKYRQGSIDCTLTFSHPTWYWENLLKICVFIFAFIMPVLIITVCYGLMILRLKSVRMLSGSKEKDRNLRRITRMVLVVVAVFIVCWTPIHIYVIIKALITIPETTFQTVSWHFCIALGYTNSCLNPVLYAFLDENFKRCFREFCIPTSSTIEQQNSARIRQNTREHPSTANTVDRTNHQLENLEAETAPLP
Sequence of Delta-type opioid receptor (P32300 whole entry): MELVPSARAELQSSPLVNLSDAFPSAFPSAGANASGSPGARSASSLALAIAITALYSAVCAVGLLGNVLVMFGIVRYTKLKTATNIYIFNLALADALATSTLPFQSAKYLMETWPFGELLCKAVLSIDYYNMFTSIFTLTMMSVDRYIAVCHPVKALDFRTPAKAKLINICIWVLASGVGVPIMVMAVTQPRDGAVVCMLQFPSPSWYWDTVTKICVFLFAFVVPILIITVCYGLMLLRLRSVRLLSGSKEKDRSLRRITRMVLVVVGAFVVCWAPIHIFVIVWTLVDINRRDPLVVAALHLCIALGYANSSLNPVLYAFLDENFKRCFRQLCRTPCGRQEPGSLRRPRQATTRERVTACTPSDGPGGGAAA
Sequence of Mu-type opioid receptor (P35372 whole entry): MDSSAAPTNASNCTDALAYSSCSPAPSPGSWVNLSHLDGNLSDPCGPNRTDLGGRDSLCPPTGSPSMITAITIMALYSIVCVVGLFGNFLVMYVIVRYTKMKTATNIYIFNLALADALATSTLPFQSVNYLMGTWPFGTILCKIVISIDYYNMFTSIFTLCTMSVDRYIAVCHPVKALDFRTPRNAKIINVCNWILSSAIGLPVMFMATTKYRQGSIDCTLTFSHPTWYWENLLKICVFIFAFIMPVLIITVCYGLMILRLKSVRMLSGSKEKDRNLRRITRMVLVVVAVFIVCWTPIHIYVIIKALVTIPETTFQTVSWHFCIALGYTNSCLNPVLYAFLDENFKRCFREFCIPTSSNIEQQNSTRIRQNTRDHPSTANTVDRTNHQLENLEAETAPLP
Sequence of 5-hydroxytryptamine receptor 7 (Homo sapiens) (P34969 whole entry): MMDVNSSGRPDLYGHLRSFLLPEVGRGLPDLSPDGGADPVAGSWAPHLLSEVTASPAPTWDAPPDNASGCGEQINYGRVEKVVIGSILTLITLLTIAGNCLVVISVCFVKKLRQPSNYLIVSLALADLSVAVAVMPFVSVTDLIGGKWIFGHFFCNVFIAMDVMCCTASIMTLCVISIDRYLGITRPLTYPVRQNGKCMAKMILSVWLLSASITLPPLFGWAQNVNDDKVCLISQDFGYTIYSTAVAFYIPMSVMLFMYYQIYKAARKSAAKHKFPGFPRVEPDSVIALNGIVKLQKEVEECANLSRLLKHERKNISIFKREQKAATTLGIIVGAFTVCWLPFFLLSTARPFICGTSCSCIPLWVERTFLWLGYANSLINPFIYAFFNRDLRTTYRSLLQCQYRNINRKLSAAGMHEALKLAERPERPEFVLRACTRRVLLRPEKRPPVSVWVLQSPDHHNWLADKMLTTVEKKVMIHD

SMILES: CC[C@@H]1CN2CC[C@]3(Nc4cccc(OC)c4C3=O)[C@@H]2C[C@@H]1/C(=C\OC)C(=O)OC
- inhibition [1]: Active
- Time [2]: 15 min
- inhibition [3]: Active
- inhibition [4]: Active
- Activity [5]: Not Active
- Activity [6]: Active
- Ki [7]: 3 nM
- Activity [8]: Non-Toxic
- ED50 [9]: 4.5 mg/kg
- Activity [10]: Non-Toxic
- Ratio ED50 [11]: 6
- Emax [12]: 84%
- Activity [13]: Toxic
